Measured values reported in PubChem BioAssay AID328 (DTP/NCI, 2004).
Values joined by “and” are separate entries in the source; they are usually repeats but may differ in a detail not shown here. Equal entries are not always repeated. Toxic doses and inconclusive results are not listed. The calls were made as follows: active = survival T/C of 150% or more; inactive = T/C below 125% in these data.

Test system: BDF1 mice, P388 leukemia ip, median survival T/C
Experiment: NCI In Vivo Anticancer Drug Screen. Data for tumor model P388 Leukemia (intraperitoneal) in B6D2F1 (BDF1) mice
Details: endpoint: median survival time, higher = longer survival
In short: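 Compound-treated tumour-bearing mice were compared with vehicle-treated controls. Survival was recorded, and the value is the treated-group measurement divided by the control-group measurement (T/C).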

[1] = dose: 100.0 mg/kg/injection, schedule: Q04DX003 (ip), vehicle: Klucel (hydroxypropylcellulose) (HPC)
[2] = dose: 200.0 mg/kg/injection, schedule: Q04DX003 (ip), vehicle: Klucel (hydroxypropylcellulose) (HPC)
[3] = dose: 50.0 mg/kg/injection, schedule: Q01DX009 (ip), vehicle: saline with Tween-80
[4] = dose: 100.0 mg/kg/injection, schedule: Q01DX009 (ip), vehicle: saline with Tween-80
[5] = dose: 200.0 mg/kg/injection, schedule: Q01DX009 (ip), vehicle: saline with Tween-80
[6] = dose: 100.0 mg/kg/injection, schedule: Q04DX003 (ip), vehicle: saline with Tween-80
[7] = dose: 200.0 mg/kg/injection, schedule: Q04DX003 (ip), vehicle: saline with Tween-80
[8] = dose: 400.0 mg/kg/injection, schedule: Q04DX003 (ip), vehicle: saline with Tween-80
[9] = dose: 50.0 mg/kg/injection, schedule: Q01DX005 (ip), vehicle: saline with Tween-80
[10] = dose: 200.0 mg/kg/injection, schedule: Q01DX005 (ip), vehicle: saline with Tween-80
[11] = dose: 200.0 mg/kg/injection, schedule: Q01DX009 (ip), vehicle: Klucel (hydroxypropylcellulose) (HPC)

Measured: T/C

ClC12CC3CC(CC(C3)C1)C2
inactive: dose: 50.0 mg/kg/injection, schedule: Q04DX003 (ip), vehicle: acetone 104 % of control | dose: 100.0 mg/kg/injection, schedule: Q04DX003 (ip), vehicle: acetone 113 % of control | dose: 200.0 mg/kg/injection, schedule: Q04DX003 (ip), vehicle: acetone 109 % of control

CC(C)(C)CC(Cl)Cl
inactive: dose: 75.0 mg/kg/injection, schedule: Q01DX009 (ip), vehicle: Klucel (hydroxypropylcellulose) (HPC) 100 % of control | [1] 100 % of control | dose: 150.0 mg/kg/injection, schedule: Q01DX009 (ip), vehicle: Klucel (hydroxypropylcellulose) (HPC) 100 % of control | [2] 100 % of control | dose: 400.0 mg/kg/injection, schedule: Q04DX003 (ip), vehicle: Klucel (hydroxypropylcellulose) (HPC) 107 % of control

CCc1ccc2[nH]nc(CCC(=O)O)c(=O)c2c1
inactive: [3] 117 % of control | [4] 108 % of control | [5] 92 % of control

CCCCCCCCCCCC(=O)Oc1c(Cl)c(Cl)c(C#N)c(Cl)c1Cl
inactive: [3] 94 % of control | [5] 86 % of control

O=C(O)/C(Cc1cnc2ccccc2n1)=N\O
inactive: [6] 95 % of control | [7] 100 % of control | [8] 91 % of control

COc1cccc2c1N=C1CCCC3CN(C(C)=O)CCC123 (stereo unspecified)
inactive: [3] 99 % of control | [4] 103 % of control | [5] 99 % of control

OCCNCCN1CCN(CCCN2c3ccccc3Sc3ccc(C(F)(F)F)cc32)CC1
inactive: dose: 6.25 mg/kg/injection, schedule: Q04DX003 (ip), vehicle: saline 104 % of control | dose: 12.5 mg/kg/injection, schedule: Q04DX003 (ip), vehicle: saline 110 % of control | dose: 25.0 mg/kg/injection, schedule: Q04DX003 (ip), vehicle: saline 91 % of control and 110 % of control | dose: 50.0 mg/kg/injection, schedule: Q04DX003 (ip), vehicle: saline 91 % of control

C/C(=C1/c2ccccc2-c2n[nH]c(C)c21)S(=O)(=O)O
inactive: [6] 104 % of control | [7] 100 % of control | [8] 100 % of control

O=S(=O)(O)c1c(Cl)c(Cl)c(Cl)c(Cl)c1Cl
inactive: dose: 50.0 mg/kg/injection, schedule: Q04DX003 (ip), vehicle: suspension in saline 115 % of control | dose: 100.0 mg/kg/injection, schedule: Q04DX003 (ip), vehicle: suspension in saline 116 % of control | dose: 200.0 mg/kg/injection, schedule: Q04DX003 (ip), vehicle: suspension in saline 114 % of control

COC(=O)c1c(C(=O)OC)c1=[N+]=[N-]
inactive: [3] 101 % of control | [4] 96 % of control | [5] 99 % of control

O=C1CC/C(=N\O)N1
inactive: dose: 75.0 mg/kg/injection, schedule: Q01DX009 (ip), vehicle: saline 93 % of control | dose: 150.0 mg/kg/injection, schedule: Q01DX009 (ip), vehicle: saline 86 % of control

O=C(O)C1CCC2(CCCCC2)CC1
inactive: dose: 6.25 mg/kg/injection, schedule: Q01DX009 (ip), vehicle: water 106 % of control | dose: 12.5 mg/kg/injection, schedule: Q01DX009 (ip), vehicle: water 100 % of control | dose: 12.5 mg/kg/injection, schedule: Q04DX003 (ip), vehicle: water 104 % of control | dose: 25.0 mg/kg/injection, schedule: Q01DX009 (ip), vehicle: water 113 % of control and 117 % of control | dose: 25.0 mg/kg/injection, schedule: Q04DX003 (ip), vehicle: water 94 % of control and 106 % of control and 116 % of control | dose: 50.0 mg/kg/injection, schedule: Q01DX009 (ip), vehicle: water 99 % of control and 106 % of control | dose: 100.0 mg/kg/injection, schedule: Q01DX009 (ip), vehicle: water 94 % of control and 100 % of control | dose: 200.0 mg/kg/injection, schedule: Q01DX009 (ip), vehicle: water 88 % of control

ON=C(Cc1ccccc1)Cc1ccccc1
inactive: [6] 100 % of control | [7] 109 % of control | [8] 109 % of control

O=[N+]([O-])c1ccc(/C=C/c2cccc(/C=C/c3ccc([N+](=O)[O-])cc3)[n+]2[O-])cc1
inactive: [9] 96 % of control | dose: 100.0 mg/kg/injection, schedule: Q01DX005 (ip), vehicle: saline with Tween-80 94 % of control | [10] 93 % of control

CCC12CCC(=O)NC1Cc1[nH]c3c(OC)cccc3c1C2 (stereo unspecified)
inactive: dose: 100.0 mg/kg/injection, schedule: Q04DX003 (ip), vehicle: saline sonified 100 % of control | dose: 200.0 mg/kg/injection, schedule: Q04DX003 (ip), vehicle: saline sonified 100 % of control | dose: 400.0 mg/kg/injection, schedule: Q04DX003 (ip), vehicle: saline sonified 109 % of control

CCC(=O)N(c1ccccc1)c1ccccc1
inactive: dose: 75.0 mg/kg/injection, schedule: Q01DX009 (ip), vehicle: saline with Tween-80 99 % of control | dose: 150.0 mg/kg/injection, schedule: Q01DX009 (ip), vehicle: saline with Tween-80 100 % of control | dose: 300.0 mg/kg/injection, schedule: Q01DX009 (ip), vehicle: saline with Tween-80 108 % of control

CCCCCCC(c1c(O)cc(C)[nH]c1=O)c1c(O)cc(C)[nH]c1=O
inactive: [3] 96 % of control | [4] 96 % of control | [5] 90 % of control

C[C@]1(O)CC[C@H]2[C@@H]3CCC4=CC(=O)CCC4=C3C=C[C@@]21C
inactive: dose: 12.5 mg/kg/injection, schedule: Q01DX009 (ip), vehicle: Klucel (hydroxypropylcellulose) (HPC) 87 % of control | dose: 25.0 mg/kg/injection, schedule: Q01DX009 (ip), vehicle: Klucel (hydroxypropylcellulose) (HPC) 91 % of control | dose: 50.0 mg/kg/injection, schedule: Q01DX009 (ip), vehicle: Klucel (hydroxypropylcellulose) (HPC) 91 % of control | dose: 100.0 mg/kg/injection, schedule: Q01DX009 (ip), vehicle: Klucel (hydroxypropylcellulose) (HPC) 104 % of control | [1] 104 % of control | [11] 109 % of control | [2] 104 % of control

OC(Nc1nccs1)C(Cl)(Cl)Cl (stereo unspecified)
inactive: [3] 104 % of control | [4] 110 % of control | [5] 94 % of control

COc1ccc2ccccc2c1/C=N/N1CCCCC1
inactive: [6] 110 % of control | [7] 95 % of control | [8] 115 % of control

CO[C@H](C)[C@@](O)(C(=O)OCC1=CCN2CCC[C@@H]12)C(C)C
inactive: dose: 20.0 mg/kg/injection, schedule: Q01DX010 (ip), vehicle: carboxymethylcellulose (CMC) 95 % of control | dose: 40.0 mg/kg/injection, schedule: Q01DX010 (ip), vehicle: carboxymethylcellulose (CMC) 115 % of control | dose: 80.0 mg/kg/injection, schedule: Q01DX010 (ip), vehicle: carboxymethylcellulose (CMC) 110 % of control

C/C=C/C=C/C(=O)NO
inactive: dose: 100.0 mg/kg/injection, schedule: Q04DX003 (ip), vehicle: alcohol 113 % of control | [11] 91 % of control | dose: 200.0 mg/kg/injection, schedule: Q04DX003 (ip), vehicle: alcohol 100 % of control | dose: 400.0 mg/kg/injection, schedule: Q01DX009 (ip), vehicle: Klucel (hydroxypropylcellulose) (HPC) 116 % of control | dose: 400.0 mg/kg/injection, schedule: Q04DX003 (ip), vehicle: alcohol 104 % of control

O=c1oc2ccccc2n1Cc1ccc(Cl)cc1
inactive: dose: 25.0 mg/kg/injection, schedule: Q01DX005 (ip), vehicle: saline with Tween-80 92 % of control | [9] 99 % of control | [10] 94 % of control
